ChEMBL document CHEMBL5665443, “Enzyme Inhibitor Single Concentration assay results for EUbOPEN Chemogenomics Library” (2024)

Tests used:
[1] = biological target: T1, Single-strand selective monofunctional uracil DNA glycosylase (Homo sapiens) (UniProt Q53HV7); details: Hit No;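 further: enzymatic SMUG1 assay coupled with APE1, reading fluorescence at 594 nm released when a quenched double-stranded DNA oligonucleotide substrate is cleaved and separated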
T1 sequence (whole entry): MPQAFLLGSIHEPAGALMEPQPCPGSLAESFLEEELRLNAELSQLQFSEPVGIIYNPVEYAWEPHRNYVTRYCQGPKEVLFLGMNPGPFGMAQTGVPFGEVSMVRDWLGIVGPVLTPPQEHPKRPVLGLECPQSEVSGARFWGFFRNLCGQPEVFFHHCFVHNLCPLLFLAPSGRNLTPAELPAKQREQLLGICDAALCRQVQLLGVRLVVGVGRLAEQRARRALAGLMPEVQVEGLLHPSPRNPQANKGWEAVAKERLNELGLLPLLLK
Description: Inhibition of SMUG1 by quantifying inhibition of SMUG1-mediated cleavage and dissociation of quenched duplex DNA oligonucleotides, measured as fluorescence at 594 nm. To generate a functional strand incision and increase turn-over this assay is coupled to APE1.

[2] = biological target: T2, Endonuclease 8-like 2 (Homo sapiens) (UniProt Q969S2); details: Hit No;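 further: fluorescence at 594 nm reports NEIL2 cutting and release of a quenched double-stranded DNA oligo substrate, reduced signal read as inhibition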
T2 sequence (whole entry): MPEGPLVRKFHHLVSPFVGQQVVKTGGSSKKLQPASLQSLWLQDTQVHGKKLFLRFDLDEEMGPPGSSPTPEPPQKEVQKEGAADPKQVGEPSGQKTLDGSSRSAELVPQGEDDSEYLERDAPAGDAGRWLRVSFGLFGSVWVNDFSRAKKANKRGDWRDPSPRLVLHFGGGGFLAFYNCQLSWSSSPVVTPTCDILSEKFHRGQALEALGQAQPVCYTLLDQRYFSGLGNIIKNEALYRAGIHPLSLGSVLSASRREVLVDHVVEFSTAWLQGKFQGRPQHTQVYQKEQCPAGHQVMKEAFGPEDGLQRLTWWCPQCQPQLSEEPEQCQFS
Description: Inhibition of NEIL2 by quantifying inhibition of NEIL2-mediated cleavage and dissociation of quenched duplex DNA oligonucleotides, measured as fluorescence at 594 nm.

[3] = biological target: T3, Adenine DNA glycosylase (Homo sapiens) (UniProt Q9UIF7); details: Hit No;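 further: human MUTYH activity read as 594 nm fluorescence from cleavage and release of a quenched DNA duplex, coupled with APE1 for strand incision, lower signal meaning inhibition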
T3 sequence (whole entry): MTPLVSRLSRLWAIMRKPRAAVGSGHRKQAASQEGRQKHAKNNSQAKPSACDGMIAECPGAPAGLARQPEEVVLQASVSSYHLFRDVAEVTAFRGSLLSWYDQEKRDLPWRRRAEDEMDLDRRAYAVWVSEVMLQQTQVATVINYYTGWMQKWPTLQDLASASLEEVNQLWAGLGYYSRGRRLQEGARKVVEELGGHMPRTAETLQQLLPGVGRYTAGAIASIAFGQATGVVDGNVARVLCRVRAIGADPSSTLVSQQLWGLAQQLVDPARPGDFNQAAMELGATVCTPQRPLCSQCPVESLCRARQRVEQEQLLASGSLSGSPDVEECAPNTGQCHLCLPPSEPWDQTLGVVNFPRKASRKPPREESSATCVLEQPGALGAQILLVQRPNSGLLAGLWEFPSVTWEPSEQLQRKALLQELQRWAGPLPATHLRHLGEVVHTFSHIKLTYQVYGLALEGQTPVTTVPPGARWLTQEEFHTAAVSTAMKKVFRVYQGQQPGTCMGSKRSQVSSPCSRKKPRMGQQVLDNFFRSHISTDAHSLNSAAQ
Description: Inhibition of MUTYH by quantifying inhibition of MUTYH-mediated cleavage and dissociation of quenched duplex DNA oligonucleotides, measured as fluorescence at 594 nm. To generate a functional strand incision and increase turn-over this assay is coupled to APE1.

[4] = biological target: T4, Endonuclease III-like protein 1 (Homo sapiens) (UniProt P78549); details: Hit No;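 further: enzyme assay tracking NTHL1 cutting and release of a quenched double-stranded DNA oligo substrate, read as fluorescence at 594 nm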
T4 sequence (whole entry): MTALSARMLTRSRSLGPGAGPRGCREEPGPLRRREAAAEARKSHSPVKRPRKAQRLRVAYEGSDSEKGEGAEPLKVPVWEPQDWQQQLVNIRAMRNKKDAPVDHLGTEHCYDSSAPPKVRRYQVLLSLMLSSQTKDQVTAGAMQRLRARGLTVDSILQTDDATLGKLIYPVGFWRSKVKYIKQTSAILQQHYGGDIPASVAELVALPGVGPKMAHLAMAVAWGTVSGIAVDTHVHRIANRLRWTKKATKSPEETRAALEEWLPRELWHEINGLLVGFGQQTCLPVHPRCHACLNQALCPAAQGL
Description: Inhibition of NTHL1 by quantifying inhibition of NTHL1-mediated cleavage and dissociation of quenched duplex DNA oligonucleotides, measured as fluorescence at 594 nm.

[5] = biological target: G/T mismatch-specific thymine DNA glycosylase (Homo sapiens) (UniProt Q13569);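 further: human TDG cleavage of quenched duplex DNA oligonucleotides coupled to APE1, strand release read as fluorescence at 594 nm, inhibition of TDG activity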
Description: Inhibition of TDG by quantifying inhibition of TDG-mediated cleavage and dissociation of quenched duplex DNA oligonucleotides, measured as fluorescence at 594 nm. To generate a functional strand incision and increase turn-over this assay is coupled to APE1.

[6] = biological target: Methyl-CpG-binding domain protein 4 (Homo sapiens) (UniProt O95243);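 further: MBD4 activity read as fluorescence at 594 nm from cleavage and release of a quenched duplex DNA oligonucleotide, with APE1 coupled to incise the strand and raise turnover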
Description: Inhibition of MBD4 by quantifying inhibition of MBD4-mediated cleavage and dissociation of quenched duplex DNA oligonucleotides, measured as fluorescence at 594 nm. To generate a functional strand incision and increase turn-over this assay is coupled to APE1.

[7] = biological target: N-glycosylase/DNA lyase (Homo sapiens) (UniProt O15527);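 further: OGG1 cleavage of a quenched duplex DNA oligonucleotide, coupled to APE1 for strand incision, read as fluorescence at 594 nm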
Description: Inhibition of OGG1 by quantifying inhibition of OGG1-mediated cleavage and dissociation of quenched duplex DNA oligonucleotides, measured as fluorescence at 594 nm. To generate a functional strand incision and increase turn-over this assay is coupled to APE1.

[8] = biological target: Uracil-DNA glycosylase (Homo sapiens) (UniProt P13051); details: Hit No;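 further: UNG excision on a quenched double-stranded DNA oligo probe, with APE1 added for strand incision and turnover, read as fluorescence at 594 nm as strands separate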
Description: Inhibition of UNG by quantifying inhibition of UNG-mediated cleavage and dissociation of quenched duplex DNA oligonucleotides, measured as fluorescence at 594 nm. To generate a functional strand incision and increase turn-over this assay is coupled to APE1.

[9] = biological target: Endonuclease 8-like 1 (Homo sapiens) (UniProt Q96FI4); details: Hit No;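 further: fluorescence at 594 nm from quenched duplex DNA oligonucleotides released by NEIL1 cleavage and strand separation, reported as reduction of this enzyme activity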
Description: Inhibition of NEIL1 by quantifying inhibition of NEIL1-mediated cleavage and dissociation of quenched duplex DNA oligonucleotides, measured as fluorescence at 594 nm.

[10] = Compound Concentration 1.0 uM, Hit No
[11] = Compound Concentration 10.0 uM, Hit No
[12] = Compound Concentration 10.0 uM, Hit Yes

Chain of Uracil-DNA glycosylase (Homo sapiens) (P13051 whole entry): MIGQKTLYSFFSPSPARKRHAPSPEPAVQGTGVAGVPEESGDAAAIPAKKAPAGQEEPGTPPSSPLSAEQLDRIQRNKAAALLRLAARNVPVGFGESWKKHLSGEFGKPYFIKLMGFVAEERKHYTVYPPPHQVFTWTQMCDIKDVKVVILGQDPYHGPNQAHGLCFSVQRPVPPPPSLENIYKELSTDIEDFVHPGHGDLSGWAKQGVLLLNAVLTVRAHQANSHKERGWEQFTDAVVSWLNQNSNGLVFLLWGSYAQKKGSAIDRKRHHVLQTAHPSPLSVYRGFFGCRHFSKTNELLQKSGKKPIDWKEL
Chain of Methyl-CpG-binding domain protein 4 (Homo sapiens) (O95243 whole entry, the tested form may be a part): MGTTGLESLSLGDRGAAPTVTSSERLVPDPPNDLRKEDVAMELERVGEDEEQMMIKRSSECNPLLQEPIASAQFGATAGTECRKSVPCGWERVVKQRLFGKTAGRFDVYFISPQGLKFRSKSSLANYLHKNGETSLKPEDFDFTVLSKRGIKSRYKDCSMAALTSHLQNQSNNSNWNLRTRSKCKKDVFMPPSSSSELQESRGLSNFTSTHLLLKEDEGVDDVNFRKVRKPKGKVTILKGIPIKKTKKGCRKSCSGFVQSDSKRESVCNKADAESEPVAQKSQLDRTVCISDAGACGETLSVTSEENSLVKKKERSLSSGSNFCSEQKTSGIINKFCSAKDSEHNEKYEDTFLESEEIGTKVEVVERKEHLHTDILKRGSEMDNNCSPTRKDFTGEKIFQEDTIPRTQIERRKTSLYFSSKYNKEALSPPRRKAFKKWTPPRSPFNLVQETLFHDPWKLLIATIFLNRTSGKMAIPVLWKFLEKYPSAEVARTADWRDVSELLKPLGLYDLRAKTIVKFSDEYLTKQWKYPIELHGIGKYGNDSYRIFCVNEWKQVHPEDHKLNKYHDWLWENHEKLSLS
Chain of Endonuclease 8-like 1 (Homo sapiens) (Q96FI4 whole entry): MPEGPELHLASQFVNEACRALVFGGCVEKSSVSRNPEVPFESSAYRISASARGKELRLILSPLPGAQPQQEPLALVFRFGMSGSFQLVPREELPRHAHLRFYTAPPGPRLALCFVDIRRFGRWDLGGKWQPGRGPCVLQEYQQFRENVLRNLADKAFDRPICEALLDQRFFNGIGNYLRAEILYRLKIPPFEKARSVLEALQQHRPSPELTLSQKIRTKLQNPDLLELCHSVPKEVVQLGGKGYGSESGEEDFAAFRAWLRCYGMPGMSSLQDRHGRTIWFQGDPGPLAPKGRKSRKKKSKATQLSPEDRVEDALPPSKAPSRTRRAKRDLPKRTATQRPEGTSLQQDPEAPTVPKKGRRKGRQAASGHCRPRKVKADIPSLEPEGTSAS
Chain of G/T mismatch-specific thymine DNA glycosylase (Homo sapiens) (Q13569 whole entry, the tested form may be a part): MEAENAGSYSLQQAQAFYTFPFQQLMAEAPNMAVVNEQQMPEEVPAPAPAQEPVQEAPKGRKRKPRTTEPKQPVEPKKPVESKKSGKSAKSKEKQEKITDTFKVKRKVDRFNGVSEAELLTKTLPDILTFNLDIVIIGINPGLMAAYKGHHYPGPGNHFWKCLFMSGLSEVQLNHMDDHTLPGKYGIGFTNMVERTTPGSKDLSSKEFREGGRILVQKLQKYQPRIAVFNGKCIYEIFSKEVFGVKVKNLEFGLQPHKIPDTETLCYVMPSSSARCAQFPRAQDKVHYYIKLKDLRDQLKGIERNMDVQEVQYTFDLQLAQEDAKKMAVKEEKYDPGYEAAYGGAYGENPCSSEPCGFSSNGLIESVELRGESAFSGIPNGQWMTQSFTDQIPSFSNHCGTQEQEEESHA
Chain of N-glycosylase/DNA lyase (Homo sapiens) (O15527 whole entry): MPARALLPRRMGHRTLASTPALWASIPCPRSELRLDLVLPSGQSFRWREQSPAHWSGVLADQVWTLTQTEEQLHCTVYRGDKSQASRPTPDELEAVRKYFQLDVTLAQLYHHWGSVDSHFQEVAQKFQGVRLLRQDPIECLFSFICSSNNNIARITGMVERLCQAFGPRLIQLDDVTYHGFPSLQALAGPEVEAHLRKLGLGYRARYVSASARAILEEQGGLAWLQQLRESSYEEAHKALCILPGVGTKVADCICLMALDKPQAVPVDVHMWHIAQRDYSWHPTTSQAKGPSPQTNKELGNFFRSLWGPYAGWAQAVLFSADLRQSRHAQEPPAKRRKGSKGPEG

Row | Structure (SMILES) | inhibition ([1]; Compound Concentration 1.0 uM) [%] | inhibition ([3]; Compound Concentration 1.0 uM) [%] | inhibition ([4]; Compound Concentration 1.0 uM) [%] | inhibition [5, 10] [%] | inhibition [6, 10] [%] | inhibition [7, 10] [%] | inhibition ([8]; Compound Concentration 1.0 uM) [%] | inhibition ([1]; Compound Concentration 10.0 uM) [%] | inhibition ([3]; Compound Concentration 10.0 uM) [%] | inhibition ([4]; Compound Concentration 10.0 uM) [%] | inhibition [5, 11] [%] | inhibition [6, 11] [%] | inhibition [7, 11] [%] | inhibition ([8]; Compound Concentration 10.0 uM) [%] | inhibition ([9]; Compound Concentration 10.0 uM) [%] | inhibition ([9]; Compound Concentration 1.0 uM) [%] | other results
1 | O=C(Nc1ccc(-n2nc(-c3cccnc3)cc2C(F)(F)F)cn1)c1ccc(-c2ccccc2)c(F)c1 | 24.9 | -4.64 | 0.685 | 56.1 | 59.3 | 18.5 | 6.15 | – | – | – | – | – | – | – | – | – | inhibition ([2]; Compound Concentration 1.0 uM): 4.61%
2 | Cc1nc(-c2ccc(C(F)(F)F)cc2)sc1C(=O)NCc1ccc(OC(C)(C)C(=O)O)cc1 | – | – | – | – | – | – | – | 17.9 | 6.62 | -7.86 | 53.6 | 62.8 | 20.2 | 5.42 | – | – | inhibition ([2]; Compound Concentration 10.0 uM): -7.38%
3 | CC(C)C(=O)N1CCC(c2cn(C)c3ncc(NC(=O)c4cccc(C#N)c4)c(C(F)(F)F)c23)CC1 | – | – | – | – | – | – | – | 26.5 | 7.16 | 9.89 | 58.4 | 55.2 | 7.16 | 5.34 | – | – | inhibition ([2]; Compound Concentration 10.0 uM): -3.04%
4 | COc1cc(N(C)c2ccnc3ccc(C(F)(F)F)cc23)cc(OC)c1OC | – | – | – | – | – | – | – | 13.4 | -1.88 | 2.18 | 33.1 | 5.39 | 1.25 | 1.59 | 4.23 | – | –
5 | CN(C)C(=O)N1CC[C@H](NC2=Nc3cc(F)ccc3N(CC(F)F)c3ccc(Cl)cc32)C1 | – | – | – | – | – | – | – | 19.6 | 36.6 | -2.7 | 38.4 | -7.39 | -5.59 | 6.61 | -0.787 | – | –
6 | COC(=O)c1sccc1S(=O)(=O)Nc1ccc(Nc2ccccc2)cc1OC | – | – | – | – | – | – | – | 18.2 | -9.5 | -7.86 | 40.6 | 58 | 3.38 | 0.459 | – | – | inhibition ([2]; Compound Concentration 10.0 uM): 1.55%
7 | CN(C)CCN(Cc1ccc(-c2ccc(CNCCc3ccccc3)cc2)cc1)C(=O)CCC1CCCC1 | – | – | – | – | – | – | – | -6.4 | 93.4 | 8 | – | – | 3.9 | 1.96 | 4.6 | – | inhibition [5, 12]: 80.3%; inhibition [6, 12]: 78.7%
8 | c1ccc(-c2oc3ncnc(NC[C@@H]4CCCO4)c3c2-c2ccccc2)cc1 | 21.6 | 3.16 | 7.06 | 35.9 | 18.1 | 6.47 | 4.04 | – | – | – | – | – | – | – | – | -7.66 | –
9 | CN(C)C(=O)Cn1cc(-c2ccc(-c3nnc4ccccn34)cc2)cn1 | 22.7 | 27.4 | -9.68 | – | 7.42 | 3.29 | 2.39 | – | – | – | – | – | – | – | – | -1.84 | inhibition ([5]; Compound Concentration 1.0 uM, Hit Yes): 100%
10 | C[C@H](CCOc1cccc(CC(=O)O)c1)N(Cc1cccc(C(F)(F)F)c1Cl)CC(c1ccccc1)c1ccccc1 | – | – | – | – | – | – | – | 19 | -7.97 | 11.9 | 52 | 61.9 | – | 0.574 | -4.38 | – | inhibition [7, 12]: 103%
11 | COCCOc1nc(-c2ccc(Cl)nc2)nc2c1CN(C(=O)c1ncn3ccccc13)CC2 | 8.24 | -6.39 | -3.92 | 39.9 | 67.8 | -1.84 | -0.22 | – | – | – | – | – | – | – | – | -3.17 | –
12 | CC(C)(C)c1ccc(C(=O)Nc2cn3cc(-n4ccnc4)ccc3n2)cc1 | – | – | – | – | – | – | – | 16.9 | 6.44 | -0.61 | 51.5 | 1.23 | 22.7 | 4.09 | -0.391 | – | –
13 | C[C@@H]1CN(c2cc(-c3n[nH]c4ccc(OC5(C)CC5)cc34)ncn2)C[C@H](C)O1 | 23.1 | -7.22 | -1.31 | 48.1 | 12.4 | 12.9 | 7.33 | 18 | 9.89 | 2 | 98.4 | 64.1 | -2.23 | 3.96 | -1.5 | -2.64 | –
14 | O=C(NCc1ccccc1)c1ccc(S(=O)(=O)NCc2ccccc2)cc1 | – | – | – | – | – | – | – | 24.3 | 27.8 | -8.98 | 39 | -9.13 | 32.2 | 3.04 | -2.64 | – | –
15 | CC(C)(O)c1ccc(N2Cc3c(ccnc3-c3ccc(F)cc3OCC(F)(F)F)C2=O)cc1 | 2.79 | -6.44 | -1.95 | 51.2 | 55.3 | -2.43 | 3.14 | – | – | – | – | – | – | – | – | -3.02 | –
16 | CNC(=O)Nc1ccc2c(c1)CC[C@@]21OC(=O)N(CC(=O)N(Cc2ccc(F)cc2)[C@@H](C)C(F)(F)F)C1=O | 13.6 | 0.168 | -7.2 | 100 | 58.8 | -4.69 | 5.87 | – | – | – | – | – | – | – | – | -8.77 | –
17 | CCOCCn1cc(C(=O)Nc2ccc(-n3nc(-c4cccnc4)cc3C(F)(F)F)cn2)ccc1=O | – | – | – | – | – | – | – | 18.6 | -6.66 | 0.685 | 35.4 | 54.1 | 3.33 | 1.33 | -4.68 | – | –
